Laboratory results reported in the CheMixHub ionic liquid set.

Test: xn = mol fraction of the nth substance listed

CCCCCCCCCCCCCC[n+]1ccccc1.O=C([O-])C(O)c1ccccc1 + CC(C)[C@H](N)C(=O)O + O
electrical conductivity [S/m], 101 kPa
Settings	293.15 K	298.15 K	303.15 K	308.15 K	313.15 K
x1 = 6.19e-06, x2 = 0.001799	0.00217	0.00247	0.00278	0.00312	0.00346
x1 = 6.85e-06, x2 = 0	0.00248	0.00278	0.00309	0.0034	0.0037
x1 = 8.87e-06, x2 = 0.0009002	0.00274	0.00311	0.00349	0.00388	0.00427
x1 = 1.146e-05, x2 = 0.001799	0.00366	0.00413	0.00464	0.0052	0.0057
x1 = 1.424e-05, x2 = 0	0.00472	0.00529	0.00587	0.0065	0.0071
x1 = 1.485e-05, x2 = 0.0009002	0.00439	0.00496	0.00555	0.0061	0.0068
x1 = 1.674e-05, x2 = 0.001799	0.0051	0.00578	0.0065	0.0072	0.008
x1 = 1.847e-05, x2 = 0.0009002	0.00537	0.00606	0.0068	0.0075	0.0083
x1 = 2.126e-05, x2 = 0	0.00671	0.0076	0.0084	0.0093	0.0101
x1 = 2.202e-05, x2 = 0.001799	0.00655	0.0074	0.0083	0.0093	0.0102
x1 = 2.264e-05, x2 = 0.0009002	0.00641	0.0072	0.0081	0.009	0.0099
x1 = 2.693e-05, x2 = 0.001799	0.00788	0.0089	0.01	0.0111	0.0123
x1 = 2.698e-05, x2 = 0.0009002	0.00756	0.0086	0.0096	0.0106	0.0117
x1 = 2.811e-05, x2 = 0	0.0086	0.0097	0.0108	0.0122	0.0131
x1 = 3.187e-05, x2 = 0.0009002	0.0089	0.01	0.0113	0.0125	0.0138
x1 = 3.257e-05, x2 = 0.001799	0.0094	0.0106	0.0119	0.0132	0.0146
x1 = 3.46e-05, x2 = 0	0.0103	0.0116	0.0129	0.0145	0.0157
x1 = 3.876e-05, x2 = 0.001799	0.0107	0.0121	0.0136	0.0152	0.0169
x1 = 3.93e-05, x2 = 0.0009001	0.0105	0.0119	0.0133	0.0148	0.0164
x1 = 4.108e-05, x2 = 0	0.0117	0.0131	0.0146	0.0161	0.0179
x1 = 4.549e-05, x2 = 0.001799	0.0119	0.0134	0.0151	0.0169	0.0188
x1 = 4.618e-05, x2 = 0.0009001	0.0116	0.0131	0.0147	0.0165	0.0183
x1 = 4.811e-05, x2 = 0	0.0129	0.0144	0.0161	0.0179	0.0198
x1 = 5.295e-05, x2 = 0.001799	0.0129	0.0146	0.0164	0.0183	0.0203
x1 = 5.324e-05, x2 = 0.0009001	0.0126	0.0142	0.0159	0.0178	0.0198
x1 = 5.388e-05, x2 = 0	0.0137	0.0154	0.0172	0.0191	0.0211
x1 = 5.982e-05, x2 = 0	0.0145	0.0163	0.0182	0.0202	0.0224
x1 = 6.012e-05, x2 = 0.0009001	0.0134	0.015	0.017	0.0191	0.0212
x1 = 6.078e-05, x2 = 0.001799	0.014	0.0158	0.0177	0.0198	0.0221
x1 = 6.559e-05, x2 = 0	0.0153	0.0172	0.0192	0.0213	0.0236
x1 = 6.609e-05, x2 = 0.0009001	0.0142	0.016	0.018	0.0202	0.0224
x1 = 6.788e-05, x2 = 0.001799	0.015	0.0169	0.0189	0.0211	0.0236
x1 = 7.081e-05, x2 = 0	0.016	0.018	0.02	0.0223	0.0246
x1 = 7.153e-05, x2 = 0.0009001	0.0149	0.0168	0.0189	0.0212	0.0236
x1 = 7.424e-05, x2 = 0.001799	0.0158	0.0179	0.0201	0.0224	0.0249
x1 = 7.604e-05, x2 = 0	0.0167	0.0187	0.0209	0.0232	0.0258
x1 = 7.714e-05, x2 = 0.0009001	0.0156	0.0176	0.0198	0.0223	0.0248
x1 = 8.025e-05, x2 = 0.001799	0.0166	0.0188	0.0211	0.0236	0.0262
x1 = 8.072e-05, x2 = 0	0.0173	0.0194	0.0217	0.0241	0.0266
x1 = 8.257e-05, x2 = 0.0009001	0.0163	0.0185	0.0208	–	–

CCCC[N+](CCCC)(CCCC)Cc1ccccc1.[Cl-] + CC(C)[C@H](N)C(=O)O + O
101 kPa
Settings	electrical conductivity, 298.15 K [S/m]	electrical conductivity, 303.15 K [S/m]	electrical conductivity, 308.15 K [S/m]	viscosity, 298.15 K [mPa·s]	viscosity, 303.15 K [mPa·s]	viscosity, 308.15 K [mPa·s]
x2 = 1.802e-05, x1 = 1.802e-05	0.0145	0.0163	0.0169	–	0.825	0.704
x2 = 1.804e-05, x1 = 5.406e-05	0.0303	0.0313	0.0331	–	–	–
x2 = 1.805e-05, x1 = 9.009e-05	0.0341	0.0371	0.0391	–	–	–
x2 = 4.506e-05, x1 = 1.802e-05	0.0166	0.0172	0.0185	–	0.838	0.719
x2 = 4.509e-05, x1 = 5.405e-05	0.0312	0.0322	0.0342	–	–	–
x2 = 4.511e-05, x1 = 9.009e-05	0.0353	0.0383	0.0406	1.296	–	–
x2 = 7.21e-05, x1 = 1.802e-05	0.0185	0.0193	0.0209	–	0.851	0.733
x2 = 7.214e-05, x1 = 5.405e-05	0.0325	0.0335	0.0356	1.273	–	–
x2 = 7.218e-05, x1 = 9.009e-05	0.0365	0.0394	0.0421	–	–	–
x2 = 9.913e-05, x1 = 1.802e-05	0.0205	0.0215	0.0234	–	0.864	0.748
x2 = 9.919e-05, x1 = 5.405e-05	0.0338	0.0346	0.0363	1.288	–	–
x2 = 9.925e-05, x1 = 9.008e-05	0.0379	0.0409	0.0435	–	1.165	–
x2 = 0.0001262, x1 = 1.802e-05	0.0222	0.0236	0.0249	–	0.878	0.763
x2 = 0.0001262, x1 = 5.405e-05	0.0347	0.0357	0.0377	–	–	–
x2 = 0.0001263, x1 = 9.008e-05	0.0391	0.0421	0.0447	–	–	–
x2 = 0.0001532, x1 = 1.802e-05	0.0235	0.0251	0.0266	–	–	0.779
x2 = 0.0001533, x1 = 5.405e-05	0.0356	0.0368	0.0389	–	–	–
x2 = 0.0001534, x1 = 9.008e-05	0.0407	0.0435	0.0463	–	–	–

CCO + CCCCCCCC(=O)[O-].c1c[nH+]c[nH]1
101.3 kPa, x1 = 1
Settings	viscosity [mPa·s]
293.15 K	1.21
303.15 K	1

CCO + CCCCCCCCCCCCCCCC[N+](C)(C)C.[Br-] + O
Settings	electrical conductivity [S/m]
298.2 K, 101.3 kPa, x2 = 0, x1 = 0.05064	0.00019

CCCCCC[n+]1ccn(C)c1C.O=S(=O)([N-]S(=O)(=O)C(F)(F)F)C(F)(F)F + CCCCCCCCCCCCCC[P+](CCCCCC)(CCCCCC)CCCCCC.O=S(=O)([N-]S(=O)(=O)C(F)(F)F)C(F)(F)F
Settings	viscosity [mPa·s]
278.15 K, 100 kPa, x1 = 0.6	930

CCCC[N+](CCCC)(CCCC)CCCC.O=[N+]([O-])[O-] + CCCCCCCCCCCCOS(=O)(=O)[O-].[Na+] + O
viscosity [mPa·s], 100 kPa
Settings	x2 = 1.81e-06, x1 = 0.0001802	x2 = 3.61e-06, x1 = 0.0001802	x2 = 5.42e-06, x1 = 0.0001802	x2 = 7.23e-06, x1 = 0.0001802	x2 = 9.04e-06, x1 = 0.0001802	x2 = 1.084e-05, x1 = 0.0001802	x2 = 1.265e-05, x1 = 0.0001802	x2 = 1.446e-05, x1 = 0.0001802	x2 = 1.626e-05, x1 = 0.0001802	x2 = 1.807e-05, x1 = 0.0001802
293.15 K	1.012	1.013	1.014	1.014	1.015	1.016	1.017	1.018	1.018	1.018
298.15 K	0.898	0.9	0.901	0.902	0.902	0.903	0.903	0.903	0.904	0.904
303.15 K	0.797	0.798	0.798	0.8	0.8	0.801	0.801	0.801	0.801	0.801
308.15 K	0.709	0.71	0.712	0.713	0.713	0.713	0.713	0.714	0.714	0.714
313.15 K	0.643	0.644	0.644	0.644	0.645	0.645	0.645	0.645	0.645	0.646
318.15 K	0.597	0.597	0.597	0.598	0.598	0.598	0.598	0.598	0.599	0.599

Oc1cccc(O)c1O + CCCCCCCCCCCC[N+](C)(C)C.[Br-]
101.3 kPa, x2 = 0.333
Settings	electrical conductivity [S/m]	viscosity [mPa·s]
293.15 K	0.00471	–
298.15 K	0.00821	–
333.15 K	0.14	400
